{"source": "paper PMC7696216", "about": "“Bi-Functional Alginate Oligosaccharide–Polymyxin Conjugates for Improved Treatment of Multidrug-Resistant Gram-Negative Bacterial Infections” (Pharmaceutics, 2020)", "key": {"[1]": {"system": "E. coli NCTC 10418", "type": "cell-based, Escherichia coli", "details": "SI = IC50 (µg/mL, HK-2)/MIC (µg/mL)", "method": "(§1) The minimum inhibitory concentration (MIC) of colistin (as sulphate salt) and polymyxin B and their conjugates was determined using the broth microdilution method in MH broth in accordance with standard guidelines. Test organisms were suspended in MH broth (100 µL, 5 × 10^5 colony forming units (CFU)/mL) and incubated in 96-well microtitre plates in serial two-fold dilutions of the test compounds. […] Results were expressed as mode (n = 3). […] Selective activities of the polymyxins and OligoG–polymyxin conjugates were calculated as follows:Selectivity index (SI) = IC50 (μg/mL)/MIC (μg/mL)."}, "[2]": {"experiment": "MTT cytotoxicity assay", "type": "cell-based", "details": "human, HK-2 cells, 72 h incubation, 0–1 mg/mL polymyxin base, ±SEM (n = 18), read-out: Half maximal inhibitory concentration (IC50), cytotoxicity", "description": "A 3-(4,5-dimethylthiazol-2-yl)-2,5-diphenyltetrazolium bromide (MTT) assay was used to measure cell viability and proliferation of HK-2 cells. Cells were seeded into sterile 96-well microtitre plates at 1 × 10^5 cells/mL (100 µL/well) and allowed to adhere for 24 h at 37 °C. The following day, the old medium was replaced with test compounds (0–1 mg/mL polymyxin base) dissolved in filter-sterilised K-SFM. After 67 h incubation at 37 °C, filter-sterilised MTT solution (20 µL of a 5 mg/mL solution in PBS) was added to each well and incubated for a further 5 h at 37 °C. Finally, the medium was carefully removed, and the formazan crystals were solubilised in DMSO (100 µL) for 30 min. Absorbance was measured at 550 nm using a Fluostar Omega microplate reader. […] Data are expressed as mean ± SEM (n = 18)."}, "[3]": {"system": "E. coli 5702", "experiment": "MIC, broth microdilution", "type": "cell-based, Escherichia coli", "method": "as §1\n(§2) To study the antimicrobial efficacy of test compounds under more clinically relevant conditions, the MIC protocol was performed using AS medium instead of MH broth. The plates were incubated with resazurin as described above."}, "[4]": {"system": "P. aeruginosa R22", "type": "cell-based, Pseudomonas aeruginosa", "details": "for MIC: resazurin read-out", "method": "as §1\n(§3) To account for turbidity caused by mucin, resazurin dye solution (30 µL, 0.01% w/v in dH2O) was added to each well and incubated for a further 3 h at 37 °C. Colour changes were observed and recorded."}, "[5]": {"system": "A. baumannii 7789", "type": "cell-based, Acinetobacter baumannii", "method": "as §1\n(§4) In addition, alginate oligomer–colistin conjugates (3 mg/mL) were incubated in PBS at pH 7 containing bacterial alginate lyase (1 and 10 U/mL) at 37 °C for 24 h, before preparing microtitre plates as described above.\nas §2"}, "[6]": {"details": "cited from earlier work", "method": "In a clinical setting, binding of colistin to sputum biomolecules (e.g., mucin) in the airways could negatively impact antibiotic effectiveness and availability. […] A four-fold increase in the MIC of colistin was also reported when the assay was conducted in AS medium instead of MH broth, thought to be caused by bacterial growth disruption, structural modifications of lipopolysaccharides or direct colistin–mucin interactions. Alt ..."}, "[7]": {"system": "P. aeruginosa NH57388A", "experiment": "MIC, broth microdilution", "type": "cell-based, Pseudomonas aeruginosa", "method": "as §1, §2"}, "[8]": {"system": "P. aeruginosa NCTC 10662", "type": "cell-based, Pseudomonas aeruginosa", "details": "SI = IC50 (µg/mL, HK-2)/MIC (µg/mL)", "method": "as §1"}, "[9]": {"system": "P. aeruginosa MDR 301", "type": "cell-based, Pseudomonas aeruginosa", "method": "as §1, §4, §2"}, "[10]": {"system": "E. coli AIM-1", "experiment": "MIC, broth microdilution", "type": "cell-based, Escherichia coli", "details": "broth microdilution, MH broth, 5 × 10^5 CFU/mL, 16–20 h, mode (n = 3)", "method": "as §1, §4"}, "[11]": {"system": "K. pneumoniae KP05 506", "type": "cell-based, Klebsiella pneumoniae", "method": "as §1, §4, §2"}, "[12]": {"system": "K. pneumoniae IR25", "type": "cell-based, Klebsiella pneumoniae", "details": "for MIC: resazurin read-out", "method": "as §1, §3"}, "[13]": {"system": "range of Gram-negative bacterial pathogens", "experiment": "MIC and selectivity index across the panel of isolates", "type": "cell-based", "details": "mean SI over the isolates of Table S4", "method": "as §1"}, "[14]": {"system": "E. coli IR57", "type": "cell-based, Escherichia coli", "method": "as §1, §3, §2"}, "[15]": {"system": "E. coli PN21", "experiment": "MIC, broth microdilution", "type": "cell-based, Escherichia coli", "details": "SI = IC50 (µg/mL, HK-2)/MIC (µg/mL)", "method": "as §1"}, "[16]": {"system": "A. baumannii MDR ACB", "type": "cell-based, Acinetobacter baumannii", "details": "for MIC: resazurin read-out", "method": "as §1, §3"}, "[17]": {"details": "AS (artificial sputum) medium, resazurin read-out"}, "[18]": {"details": "MH broth (Table S7 comparison with AS medium)"}, "[19]": {"details": "MH broth + porcine stomach (type II) mucin 0.2% w/v"}, "[20]": {"details": "MH broth + porcine stomach (type II) mucin 2% w/v"}}, "note": "Where two headings read alike, the source gives them in different places. Positions of bridges follow the written chain, without caps; N, C: chain ends. Non-standard residues stand in square brackets, D forms with d. Residues, ends and D or L forms follow the SMILES beside them. *: point of attachment. X1 = CC[C@H](C)CCCCC(=O)*; Dab = NCC[C@H](N)C(=O)O", "data": [{"smiles": "CC[C@H](C)CCCCC(=O)N[C@@H](CCN)C(=O)N[C@H](C(=O)N[C@@H](CCN)C(=O)N[C@H]1CCNC(=O)[C@H]([C@@H](C)O)NC(=O)[C@H](CCN)NC(=O)[C@H](CCN)NC(=O)[C@H](CC(C)C)NC(=O)[C@@H](Cc2ccccc2)NC(=O)[C@H](CCN)NC1=O)[C@@H](C)O", "note": "[Polymyxin B, polymyxin B] (X1-[Dab]T[Dab][Dab][Dab][dF]L[Dab][Dab]T; lactam 4-C (inferred); N-terminus assumed)", "values": [{"measurement": "Selectivity index (SI) value", "setting": "[1]", "value": 1}, {"measurement": "IC50 at 72 h", "setting": "[2]", "value": 11, "unit": "µg/mL"}, {"measurement": "MIC", "setting": "[3]; [17]", "value": 0.25, "unit": "μg/mL Drug Base"}, {"measurement": "MIC", "setting": "[3]; [18]", "value": 0.063, "unit": "μg/mL Drug Base"}, {"measurement": "MIC", "setting": "[4]; [19]", "value": 4, "unit": "μg/mL Drug Base"}, {"measurement": "MIC", "setting": "[4]; [20]", "value": 64, "unit": "μg/mL Drug Base"}, {"measurement": "MIC", "setting": "[4]; MH broth, mucin 0%", "value": 0.25, "unit": "μg/mL Drug Base"}, {"measurement": "Selectivity index (SI) value", "setting": "[4]; SI = IC50 (µg/mL, HK-2)/MIC (µg/mL), P. aeruginosa R22", "value": 44}, {"measurement": "MIC", "setting": "[5]; [17]", "value": 0.5, "unit": "μg/mL Drug Base"}, {"measurement": "MIC", "setting": "[5]; [18]", "value": 0.125, "unit": "μg/mL Drug Base"}, {"measurement": "Selectivity index (SI) value", "setting": "[5]; SI = IC50 (µg/mL, HK-2)/MIC (µg/mL), A. baumannii 7789", "value": 88}, {"measurement": "increase in MIC values when mucin was added to the bacterial culture medium", "setting": "[6]", "value": "> 100", "unit": "fold"}, {"measurement": "MIC", "setting": "[7]; [17]", "value": 1, "unit": "μg/mL Drug Base"}, {"measurement": "MIC", "setting": "[7]; [18]", "value": 0.25, "unit": "μg/mL Drug Base"}, {"measurement": "Selectivity index (SI) value", "setting": "[7]; SI = IC50 (µg/mL, HK-2)/MIC (µg/mL), P. aeruginosa NH57388A", "value": 44}, {"measurement": "Selectivity index (SI) value", "setting": "[8]", "value": 175}, {"measurement": "MIC", "setting": "[9]; [17]", "value": 4, "unit": "μg/mL Drug Base"}, {"measurement": "MIC", "setting": "[9]; [18]", "value": 0.5, "unit": "μg/mL Drug Base"}, {"measurement": "Selectivity index (SI) value", "setting": "[9]; SI = IC50 (µg/mL, HK-2)/MIC (µg/mL), P. aeruginosa MDR 301", "value": 22}, {"measurement": "MIC", "setting": "[10]", "value": "<0.004", "unit": "μg/mL Drug Base"}, {"measurement": "MIC", "setting": "[11]; [17]", "value": 1, "unit": "μg/mL Drug Base"}, {"measurement": "MIC", "setting": "[11]; [18]", "value": 0.125, "unit": "μg/mL Drug Base"}, {"measurement": "Selectivity index (SI) value", "setting": "[11]; SI = IC50 (µg/mL, HK-2)/MIC (µg/mL), K. pneumoniae KP05 506", "value": 88}, {"measurement": "MIC", "setting": "[12]; [19]", "value": 4, "unit": "μg/mL Drug Base"}, {"measurement": "MIC", "setting": "[12]; [20]", "value": 64, "unit": "μg/mL Drug Base"}, {"measurement": "MIC", "setting": "[12]; MH broth, mucin 0%", "value": 0.125, "unit": "μg/mL Drug Base"}, {"measurement": "Selectivity index (SI) value", "setting": "[12]; SI = IC50 (µg/mL, HK-2)/MIC (µg/mL), K. pneumoniae IR25", "value": 88}, {"measurement": "Selectivity index (SI) value, Mean", "setting": "[13]", "value": 66}, {"measurement": "MIC", "setting": "[14]; [17]", "value": 0.125, "unit": "μg/mL Drug Base"}, {"measurement": "MIC", "setting": "[14]; [18]", "value": 0.5, "unit": "μg/mL Drug Base"}, {"measurement": "MIC", "setting": "[14]; MH broth + porcine stomach (type II) mucin 0.2% w/v, resazurin read-out", "value": 1, "unit": "μg/mL Drug Base"}, {"measurement": "MIC", "setting": "[14]; MH broth + porcine stomach (type II) mucin 2% w/v, resazurin read-out", "value": 4, "unit": "μg/mL Drug Base"}, {"measurement": "MIC", "setting": "[14]; MH broth, mucin 0%, resazurin read-out", "value": 0.5, "unit": "μg/mL Drug Base"}, {"measurement": "Selectivity index (SI) value", "setting": "[15]", "value": 3}, {"measurement": "MIC", "setting": "[16]; [19]", "value": 1, "unit": "μg/mL Drug Base"}, {"measurement": "MIC", "setting": "[16]; [20]", "value": 16, "unit": "μg/mL Drug Base"}, {"measurement": "MIC", "setting": "[16]; MH broth, mucin 0%", "value": 0.125, "unit": "μg/mL Drug Base"}, {"measurement": "Selectivity index (SI) value", "setting": "[16]; SI = IC50 (µg/mL, HK-2)/MIC (µg/mL), A. baumannii MDR ACB", "value": 88}]}]}
